From the NIST ThermoML archive (doi:10.1016/j.jct.2018.12.012)

Test: xn = mol fraction of the nth substance listed
Details: 100 kPa, Liquid; for speed of sound: Frequency=3 MHz, Single path-length method; for mass density: Vibrating tube method

CCCCNCCCC [dibutylamine] + CCCC(C)O
Details | mass density, 293.15 K [kg/m3] | mass density, 298.15 K [kg/m3] | mass density, 303.15 K [kg/m3] | mass density, 308.15 K [kg/m3] | speed of sound, 293.15 K [m/s] | speed of sound, 298.15 K [m/s] | speed of sound, 303.15 K [m/s] | speed of sound, 308.15 K [m/s]
x1 = 0.1007 | 804.553 | 800.484 | 796.354 | 792.163 | 1257.5 | 1238.8 | 1220.2 | 1201.8
x1 = 0.1998 | 799.644 | 795.528 | 791.368 | 787.153 | 1261.6 | 1243 | 1224.2 | 1205.4
x1 = 0.3001 | 794.588 | 790.443 | 786.26 | 782.034 | 1264.1 | 1245.1 | 1226.2 | 1207.6
x1 = 0.4 | 789.453 | 785.286 | 781.088 | 776.854 | 1265 | 1246.3 | 1227.2 | 1208.3
x1 = 0.5004 | 784.348 | 780.174 | 775.972 | 771.739 | 1265.7 | 1246.5 | 1227.4 | 1208.4
x1 = 0.6 | 779.579 | 775.399 | 771.197 | 766.971 | 1266 | 1247 | 1227.7 | 1208.5
x1 = 0.7004 | 774.754 | 770.581 | 766.391 | 762.183 | 1266.2 | 1246.7 | 1227.3 | 1208.2
x1 = 0.7993 | 770.026 | 765.866 | 761.694 | 757.505 | 1265.8 | 1246.4 | 1227.8 | 1207.2
x1 = 0.9004 | 765.576 | 761.434 | 757.282 | 753.116 | 1265.8 | 1245.8 | 1226 | 1206.7
x1 = 1 | 759.579 | 755.48 | 751.374 | 747.268 | 1260.1 | 1240.1 | 1220.3 | 1200.6

CC(C)NC(C)C [diisopropylamine] + CCC(C)O
Details | mass density, 293.15 K [kg/m3] | mass density, 298.15 K [kg/m3] | mass density, 303.15 K [kg/m3] | mass density, 308.15 K [kg/m3] | speed of sound, 293.15 K [m/s] | speed of sound, 298.15 K [m/s] | speed of sound, 303.15 K [m/s] | speed of sound, 308.15 K [m/s]
x1 = 0.1005 | 799.801 | 795.472 | 791.07 | 786.592 | 1230.8 | 1211.7 | 1192.3 | 1173.4
x1 = 0.1994 | 792.039 | 787.516 | 782.932 | 778.279 | 1226.2 | 1205.7 | 1185.3 | 1165
x1 = 0.3003 | 783.508 | 778.829 | 774.115 | 769.331 | 1217.3 | 1196.2 | 1175.6 | 1154
x1 = 0.3999 | 774.58 | 769.813 | 765.003 | 760.146 | 1205.6 | 1183.8 | 1162.3 | 1141.1
x1 = 0.5 | 764.776 | 759.954 | 755.099 | 750.197 | 1191 | 1169.2 | 1147.4 | 1125.6
x1 = 0.5961 | 755.456 | 750.604 | 745.72 | 740.801 | 1176.6 | 1154.3 | 1132.2 | 1110.4
x1 = 0.6964 | 745.553 | 740.705 | 735.88 | 731.103 | 1160.7 | 1139 | 1116.3 | 1094.2
x1 = 0.7997 | 736.007 | 731.125 | 726.228 | 721.299 | 1145.2 | 1122.7 | 1100.3 | 1078.3
x1 = 0.8967 | 726.62 | 721.759 | 716.873 | 711.96 | 1129.7 | 1107 | 1084.5 | 1062.5
x1 = 1 | 717.305 | 712.441 | 707.55 | 702.661 | 1116.4 | 1093.8 | 1071.1 | 1043.5
